Read-outs that look alike come from different tables or passages of the source.
Assays:
[1] = system: prostate cancer; details: for men diagnosed with prostate cancer: 345 men randomized to calcium; for adjusted odds ratio for prostate cancer: calcium vs placebo, 1200 mg elemental calcium (as carbonate); for toxicity: four years of treatment, 3000 mg calcium carbonate
Protocol: To investigate this issue in a randomized study, we investigated the association between prostate cancer risk and treatment assignment in a large, double blind chemoprevention trial of calcium carbonate supplementation for the prevention of large bowel adenomas. Treatment was for four years in two randomized groups: placebo or 1200 mg elemental calcium (as carbonate).
The Calcium Polyp Prevention Study from which the data for this study were obtained involved six clinical centers: the Cleveland Clinic Foundation, Dartmouth-Hitchcock Medical Center, the University of Southern California/Southern California Permanente Medical Group, the University of Iowa, University of Minnesota, and the University of North Carolina Dartmouth was the coordinating center. Human subjects committees at each center approved the study protocol; an independent safety and data monitoring committee reviewed the study semi-annually.
Eligible patients were less than eighty years old, in good health, and without a history of familial polyposis, invasive large bowel cancer, malabsorption syndromes, or any condition which might be worsened by supplemental calcium. We aimed to randomize 860 subjects to have 80% power to detect a 25% reduction in […].
We reviewed data from 2,918 apparently eligible patients. […] We assigned these subjects to calcium or placebo using computer-generated random numbers, blocking by study center. […] Study tablets contained 3000 mg of calcium carbonate (1200 mg of elemental calcium); or, an identical-appearing cellulose/sucrose placebo. The trial was double-blind; neither subjects nor study staff were told the subjects' treatment assignments.
At enrollment and at the time of each of two follow-up colonoscopies, we obtained venous blood specimens in mineral-free tubes. Serum was initially stored at −20° C. or lower, pending shipment to Dartmouth for storage at −70° C. until analysis. At enrollment and the end of the study, we also assessed subjects' diet with a validated food frequency questionnaire (Block et al., Am. J. Epidemiol., 124:453-69, 1986). Every six months, we sent patients questionnaires regarding adherence to study agents; use of medications, over-the-counter drugs and nutritional supplements; and the occurrence of symptoms, illnesses, and hospitalizations. Recruitment into the study began in November 1988 and ended in April 1992. Follow-up ended in December 1996.
To summarize the association between prostate cancer and treatment assignment, we used Kaplan-Meier survival curves as well as odds ratios (OR's) and 95% CI's, computed using logistic regression with adjustment for age, clinical center, and baseline dietary calcium. OR's were calculated for the period from randomization to end of treatment and, to accommodate possible delays in cancer detection and/or latent treatment effects, for the period from randomization to end of treatment plus 12 months (i.e., five years).

[2] = system: colorectal adenomas; details: cited from earlier work
[3] = system: prostate cancer; details: adjuvant arm after prostatic and pelvic radiation therapy; T3, N0, or any T, N1, M0 disease; 71% on observation arm, p=0.52; cited from earlier work
[4] = 913 subjects with at least one study examination, calcium carbonate 3 gm daily vs placebo

Row | SMILES | men diagnosed with prostate cancer ([1]; after five years of follow-up) [men] | men diagnosed with prostate cancer ([1]; after four years of follow-up) [men] | risk of prostate cancer ([1]; assignment to calcium supplementation vs placebo) | incidence of prostate cancer, Kaplan-Meier curves versus placebo ([1]; by year three of follow-up) | adjusted odds ratio for prostate cancer ([1]; five-year follow-up (end of treatment plus 12 months)) | toxicity [1] | toxicity ([1]; listed as calcium carbonate) | adjusted odds ratio for prostate cancer ([1]; four-year treatment period, adjusted for age, clinical center, baseline dietary calcium) | adjusted ratio of the average numbers of adenomas [2, 4] | adjusted risk ratio of any adenoma recurrence [2, 4] | toxicity associated with supplementation ([2]; calcium carbonate 3 gm daily) | actuarial overall 5-year survival rate [3] [%]
1 | O=C([O-])[O-].[Ca+2] [calcium, calcium carbonate] | 11 | 8 | statistically significant reduction | lower incidence | 0.43 | without toxicity | minimal | 0.54 | 0.76 | 0.85 | No toxicity | 
2 | CC(C)C[C@H](NC(=O)[C@@H](COC(C)(C)C)NC(=O)[C@H](Cc1ccc(O)cc1)NC(=O)[C@H](CO)NC(=O)[C@H](Cc1c[nH]c2ccccc12)NC(=O)[C@H](Cc1cnc[nH]1)NC(=O)[C@@H]1CCC(=O)N1)C(=O)N[C@@H](CCCNC(=N)N)C(=O)N1CCC[C@H]1C(=O)NNC(N)=O [goserelin] |  |  |  |  |  |  |  |  |  |  |  | 75
